Reference: patent publication US20230130103A1, “TARGETED PHARMACOLOGICAL THERAPEUTICS IN UVEAL MELANOMA” (Washington University, priority 2017, published 2023)
Entries after “also recorded” stand apart in the source; their conditions may differ. Starred links: 1 amine or outer side, 2 acyl side, 3 side chain; linkers in the order of their positions; H or OH if unused. Positions of bridges follow the written chain, without caps; N, C: chain ends. Non-standard residues stand in square brackets, D forms with d. Residues, ends and D or L forms follow the SMILES beside them. *: point of attachment. Leu(3R-OH,Nα-propionyl) = CCC(=O)N[C@H](C(=O)*)[C@H](O)C(C)C; X1 = CC(C)[C@@H](O[*:3])[C@H](N[*:1])C(=O)[*:2]; X2 = CC(C)[C@H](O[*:3])[C@@H](N[*:1])C(=O)[*:2]; NMeaThr = CN[C@H](C(=O)O)[C@H](C)O; dPhLac = O=C(O)[C@H](O)Cc1ccccc1; NMeA = CN[C@@H](C)C(=O)O; NMeDha = C=C(NC)C(=O)O

Legend:
Mel202 cells = assay: Flow cytometry of DNA content (proliferation and apoptosis); conditions: 3 d, FIG. 4C-D
Description: (§3) Cells were cultured at 37.0 in 5% CO2. […] Cell lines were grown in RPMI 1640 medium (Life Technologies, Carlsbad, Calif.) supplemented with 10% FBS and antibiotics. Cell viability was measured using a water-soluble tetrazolium salt, WTS-8 (Bimake, Houston, Tex.), following the manufacturer's protocol. Flow cytometry for analysis of cell proliferation and apoptosis was performed at the Siteman Cancer Center Flow Cytometry Core on a FACScan analyzer (BD Biosciences, San Diego Calif., USA) using a standard propidium iodide staining protocol as described previously (44).

wild type Gα13 with Gβγ2 = target: T1, wild type Gα13 with Gβγ2 (Homo sapiens, UniProt Q14344); assay: Split luciferase complementation, Gα interaction with Gβγ2; type: cell-based; conditions: FIG. 1A
T1 construct: expressed in transfected cells; host or cells: HEK-293
Text: (FIG. 1A-1C) depicts the effect of FR on the activity state of Gα subunits as determined by interaction with Gβγ or RGS domains in split luciferase complementation assays. FIG. 1A Effect of FR on interaction of Gβγ2 with the indicated wild type (WT) or mutant constitutively active (Q/L) forms of Gα (q) or Gα13 (13). * p<0.01; ** p<0.05. FIG. 1B Potency of FR as a driver of interaction of Gβγ2 with wild type or mutant constitutively active Gαq. FIG. 1C Potency of FR as inhibitor of interaction of RGS2 with mutant constitutively active (Q/L) Gαq, or interaction of the RGS domain of LARG (LARG-RGS) with mutant constitutively active Gα13. FIG. 1D Potency of FR as inhibitor of signal transduction by constitutively active Gαq or Gα13 detected with an SRE(L) promoter-driven transcriptional reporter. Constitutively active Gαq (Q/L), constitutively active Gαq bearing the indicated FR binding site mutations, and constitutively Gα13 (Q/L) were studied.
To detect protein-protein interactions, a split luciferase complementation assays was used (23), as employed to study activation state-dependent interaction between Gα subunits and cognate binding partners (24).
Split luciferase assays were performed as described (24). The N-terminal portion of click beetle green luciferase (CBGN) was inserted into the αB-αC loop within the helical domain of wild type (WT) and constitutively active (Q/L) mutant forms of Gα and Gα13. Insertion of foreign proteins at this site preserves Gαfunction (40). The C-terminal region of click beetle green luciferase (CBGC) was fused to the N-termini of G131 (which was co-expressed with untagged Gγ2), RGS2, and the RGS domain of LARG, which interacts with Gal 3 only in the active GTP-bound state (41). HEK-293 cells transiently transfected with various combinations of tagged proteins were treated 18 h with vehicle(DMSO) or FR and luciferase assays were performed to measure reconstituted luciferase activity.

[1] = test system: BRAF(V600E)-driven OCM-1A cells; assay: IP1 accumulation in UM cells (IP-One kit); type: cell-based, Human; conditions: FIG. 3B
Text: Inhibition of signaling by constitutively active Gαq in UM cultured cell lines was quantified by measuring intracellular inositol 1-phosphate (IP1), a metabolically stable product of inositol 1,4,5-trisphosphate produced by Gαq-stimulated phospholipase Cβ. FIG. 3A Basal IP1 levels in UM cell lines driven by constitutively active Gαq (92.1 and Mel202) and BRAF (OCM-1A). FIG. 3B Effects of FR on IP1 levels in 92.1, Mel202 and OCM-1A cells. *p<0.01.
A third UM cell line (OCM-1A) driven by constitutively active BRAF(V600E) served as a negative control. Signaling by Gαq-stimulated phospholipase Cβ was quantified based on levels of inositol monophosphate (IP1), a metabolically stable product of inositol 1,4,5-trisphosphate (IP3) produced by cleavage of phosphatidylinositol 4,5-bisphosphate (PIP2). […] FR reduced IP1 levels in Mel202 and 92.1 cells >50-fold (FIG. 3B), but had only modest effect (˜2-fold) on OCM-1A cells (FIG. 3B).
Accumulation of IP1 in UM cells was measured using the IP-One kit (CiSbio, Inc; catalog number 62IPAPEB) according to the supplier's instructions. 10,000 Mel 202 cells, 20,000 92.1 cells and 20,000 OCM 1A cells were seeded into white-bottom tissue culture grade 384-well plates. Following an overnight incubation, cells were treated with FR or DMSO and returned to the incubator. […] Plates were read in a Synergy H4 Hybred Reader (BioTek, Winooski, Vt., USA). […]

OCM-1A cells [2] = assay: Flow cytometry of DNA content (proliferation and apoptosis); conditions: 3 d, FIG. 4C-D
Description: Cells were cultured at 37.0 in 5% CO2. […] Cell lines were grown in RPMI 1640 medium (Life Technologies, Carlsbad, Calif.) supplemented with 10% FBS and antibiotics. […] Flow cytometry for analysis of cell proliferation and apoptosis was performed at the Siteman Cancer Center Flow Cytometry Core on a FACScan analyzer (BD Biosciences, San Diego Calif., USA) using a standard propidium iodide staining protocol as described previously (44).

OCM-1A cells [3] = assay: UM cell viability, water-soluble tetrazolium salt assay; conditions: even at high concentration (10 μM)
Description: as §3

OCM-1A UM cells = assay: qPCR validation of FR target genes; type: cell-based, Human; conditions: OCM-1A cells; FIG. 10
Description: (§1) The results for six genes showing significant changes in expression in response to FR by RNA-Seq were validated by qPCR.
(§2) 92.1 UM cells were treated with 100 nM FR or vehicle (DMSO) in RPMI growth medium and collected after 1 and 3 d of treatment. RNA was isolated using the RNeasy Mini Kit (Qiagen) following the manufacturer's protocol and including the optional DNase I treatment step. RNA quality was assessed on a Bioanalyzer 2100 (Agilent Technologies, Santa Clara, Calif., USA). mRNA was extracted from total RNA using a Dynal mRNA Direct kit, fragmented and reverse transcribed to double stranded cDNA with random primers before addition of adapters for library preparation. Library preparation and HiSeq2500 sequencing were performed by the Washington University Genome Technology Access Center (gtac.wustl.edu). FastQ files were aligned to the transcriptome and the whole-genome with STAR. Biologic replicates were simultaneously analyzed by edgeR and Sailfish analyses of gene-level/exon-level features. Unexpressed genes and exons were removed from the analyses. Unsupervised principal component analysis and volcano plots were generated in Bioconductor using edgeR. Significance Analysis of Microarrays (SAM), Version 4.0 was used to generate a ranked gene list, and a threshold of q<10% and fold-change >2.0 was then used to select the most highly significant genes that were down regulated in FR-treated versus vehicle control cells. This list was used as signature gene sets for Gene Ontology (GO) analysis and Gene Set Enrichment Analysis (GSEA) (45). […] Significant gene sets from GSEA analyses were combined such that genes associated with multiple related signatures were only counted once and each gene was assigned only to a single combined groupbased on the signature with the highest enrichment score for that gene. Significant gene expression changes were validated in all three UM cell lines by qPCR using fast SYBR Green Mastermix (Fisher Scientific) following the manufacturers' protocol. GAPDH was used as an endogenous control.

92.1 UM cells = assay: qPCR validation of FR target genes; type: cell-based, Human; conditions: 92.1 cells; FIG. 10
Description: as §1, §2

T1 sequence (P59768 2-68): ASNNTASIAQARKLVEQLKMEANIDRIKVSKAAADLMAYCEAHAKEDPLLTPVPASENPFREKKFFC
T1 sequence (Q14344 whole entry): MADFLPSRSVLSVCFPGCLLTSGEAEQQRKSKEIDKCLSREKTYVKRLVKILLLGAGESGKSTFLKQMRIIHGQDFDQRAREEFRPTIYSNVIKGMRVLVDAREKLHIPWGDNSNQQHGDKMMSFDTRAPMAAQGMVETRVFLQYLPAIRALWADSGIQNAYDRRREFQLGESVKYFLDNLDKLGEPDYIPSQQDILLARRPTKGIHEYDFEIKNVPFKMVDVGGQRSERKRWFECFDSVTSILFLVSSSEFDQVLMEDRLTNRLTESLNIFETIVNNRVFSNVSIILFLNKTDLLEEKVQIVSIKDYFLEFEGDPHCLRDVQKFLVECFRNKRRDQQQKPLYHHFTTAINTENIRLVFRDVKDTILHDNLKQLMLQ
T1 sequence (P62873 whole entry, further chain): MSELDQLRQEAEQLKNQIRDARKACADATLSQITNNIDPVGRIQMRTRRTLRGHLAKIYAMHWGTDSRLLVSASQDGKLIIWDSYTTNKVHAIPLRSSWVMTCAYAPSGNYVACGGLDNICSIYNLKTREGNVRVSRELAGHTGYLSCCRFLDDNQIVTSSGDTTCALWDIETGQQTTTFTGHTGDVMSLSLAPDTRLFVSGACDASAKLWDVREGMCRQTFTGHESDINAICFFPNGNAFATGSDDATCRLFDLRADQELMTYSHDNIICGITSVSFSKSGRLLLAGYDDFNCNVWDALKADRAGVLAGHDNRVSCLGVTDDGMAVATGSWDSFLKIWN

C=C1C(=O)N[C@@H](C)C(=O)N(C)[C@@H](C)C(=O)N[C@H]([C@@H](OC(=O)[C@@H](NC(=O)CC)[C@H](O)C(C)C)C(C)C)C(=O)N(C)[C@@H]([C@H](C)OC)C(=O)O[C@H](C(C)C)[C@H](NC(C)=O)C(=O)O[C@H](Cc2ccccc2)C(=O)N1C [FR, [(1S)-1-[(3S,6R,9S,12S,18R,21S,22R)-21-acetamido-18-benzyl-3-[(1S)-1-methoxyethyl]-4,9,10,12,16-pentamethyl-15-methylidene-2,5,8,11,14,17,20-heptaoxo-22-propan-2-yl-1,19-dioxa-4,7,10,13,16-pentazacyclodocos-6-yl]-2-methylpropyl] (2S,3R)-3-hydroxy-4-methyl-2-(propanoylamino)pentanoate] (Ac-[X1][dPhLac][NMeDha]A[NMeA][X2](Leu(3R-OH,Nα-propionyl))[NMeaThr](Me); ester 1-C)
apoptosis (sub-G1/G0 cells) (Mel202 cells): increased levels of sub-G1/G0 cells | cell cycle inhibition (decreased levels of S- and G2/M-phase cells) (Mel202 cells): induced cell cycle inhibition | effect on interaction with Gβγ2 (wild type Gα13 with Gβγ2): lack of effect | effect on IP1 levels [1]: ~2 fold | cell cycle inhibition and apoptosis (OCM-1A cells [2]): no effect | effect on proliferation (OCM-1A cells [3]): no effect | expression of PMP22 and DCT (qPCR) (OCM-1A UM cells): no effect | expression of PRC2 targets ADRA2A, HAND2, SCARF2 and WT1 (qPCR) (OCM-1A UM cells): unaffected; also recorded: no effect | expression of PMP22 and DCT (qPCR) (92.1 UM cells): significantly upregulated | expression of PRC2 targets ADRA2A, HAND2, SCARF2 and WT1 (qPCR) (92.1 UM cells): significant down-regulation
